Earlier results as cited in patent US20050233005A1, “Use of glycosaminoglycans and zinc derivatives for insect bites, stings and the like” (priority 2004, published 2005).

What was measured:
[1] = topical applications and oral administration, animal models and humans (SCCNFP report, 2003)
skin wound = conditions: topical application (Chen and Abatengelo, 1999)
diabetic foot wounds = conditions: in wound dressings (Vazquez et al., 2003)
porcine wounds = conditions: topical application (Tarnow et al., 1994; Agren et al., 2001)
[2] = test system: pruritus caused by mosquito bites; conditions: administered prophylactically (Karppinen et al., 2002)

| Compound | toxicity [1] | pruritus caused by mosquito bites [2] | further results |
| --- | --- | --- | --- |
| O=S(=O)([O-])[O-].[Zn+2] [zinc sulphate] | little or no toxicity | – | – |
| Hyaluronic acid [HA] | – | – | skin wound healing (skin wound): accelerate; healing of diabetic foot wounds (diabetic foot wounds): beneficial |
| [O]=[Zn] [zinc oxide] | little or no toxicity | – | release of growth factors (porcine wounds): enhanced |
| O=C(O)COCCN1CCN(C(c2ccccc2)c2ccc(Cl)cc2)CC1 (stereo not shown) [cetirizine] | – | significantly decrease | – |
| CC(C)(C)c1ccc(C(=O)CCCN2CCC(OC(c3ccccc3)c3ccccc3)CC2)cc1 [ebastine] | – | significantly decrease | – |
